The text below walks through data of patent US8034795B2, “Taxanes covalently bounded to hyaluronic acid or hyaluronic acid derivatives” (Fidia Farmaceutici S.p.A., priority 2002, dated 2011).

Structures are written as SMILES.

Data set [1] deals with human ovary adenocarcinoma cells, OVCAR-3 cells. Kind of data set: Survival of nude mice after intraperitoneal implant of OVCAR-3 neoplastic cells. The format is in vivo, immunodepressed nude mice (Athymic CD-1). As to conditions: 3 intraperitoneal doses (days 6, 13, 20): 20 mg/kg Taxol or 125 mg/kg HYTAD; 5 animals per group. The source says:
For this experiment, we used human ovary adenocarcinoma cells, OVCAR-3 cells, in immunodepressed nude mice belonging to the Athymic CD-1 species.
Each mouse was inoculated by the intraperitoneal route with 5×10^6 cancer cells.
The molecular weight of the HA used for synthesis of this new drug was 200,000 Da (see Example 7 for details of its preparation). Five animals were used for this drug too.
Treated animals: 10 animals were first inoculated with OVCAR-3 cells.
The survival curve was calculated from the date of intervention to the 92nd day after inoculation of the cancer cells into the peritoneum.

Data set [2] concerns SKBR-3 human breast cancer cell line. Briefly: In vitro cytotoxicity, MTT test, SKBR-3. The format is cell-based. As to conditions: SK-BR-3, 72 h, read-out: IC50 (concentration of drug necessary to inhibit cell growth by 50%). The protocol:
(§1) Four cell lines of human breast cancer were used.
(§2) 1) the test cell line is plated at a concentration of 3,000 cells per well, on a flat-bottomed, 96-well plate;
(§3) 2) 24 hours later, the cells are supplemented with the test solutions suitably diluted in culture medium;
(§4) This is possible because mitochondrial dehydrogenase is able to reduce the tetrazolium salts (yellow) into blue formazan crystals. The greater or lesser intensity of colour is assessed by spectrophotometry (Dezinot, F. et al., J. Immunol. Methods, 1986, 22 (89): 271-277).
A general note: Tetrazolium dyes change colour on reduction, which living cells bring about.

The conditions of data set [3]: intravenous infusion of paclitaxel-Cremophor EL in spite of pre-medication; cited from earlier work.
In data set [4] the test system is MDA-MB-231 human breast cancer cell line. Kind of data set: In vitro cytotoxicity, MTT test, MDA-MB-231. Type of data set: cell-based. The settings on record: MDA-MB-231, 72 h, read-out: IC50 (concentration of drug necessary to inhibit cell growth by 50%). The protocol: as §1, §2, §3, §4
Data set [5] has as its system MCF-7 human breast cancer cell line. Briefly: In vitro cytotoxicity, MTT test, MCF-7. As to conditions: MCF7, 72 h, read-out: IC50 (concentration of drug necessary to inhibit cell growth by 50%). The format is cell-based. The procedure:
as §1, §2, §3, §4

As for `CC(=O)O[C@H]1C(=O)[C@@]2(C)[C@H]([C@H](OC(=O)c3ccccc3)[C@]3(O)C[C@H](OC(=O)[C@H](O)[C@@H](NC(=O)c4ccccc4)c4ccccc4)C(C)=C1C3(C)C)[C@]1(OC(C)=O)CO[C@@H]1C[C@@H]2O` [Taxol ®, paclitaxel], the “animals that had died on the 92nd day after intervention” value in data set [1] is “none”. The IC50 came out at 0.23 nM in data set [2], 0.35 nM in data set [4] and 3.5 nM in data set [5]. The “patients who experience more or less severe adverse reactions” value in data set [3] is given as “up to 40%”.
